From patent publication US12053506B2, “Romo1-derived antimicrobial peptides and variants thereof” (priority 2019, dated 2024)
Values after ≈ are worked out from the molar mass of the structure shown. Read-outs that look alike come from different tables or passages of the source. Non-standard residues stand in square brackets, D forms with d. Residues, ends and D or L forms follow the SMILES beside them. No end group written: not given here.

Key:
[1] = tested on: Pseudomonas aeruginosa (ATCC 27853); format: cell-based
In short: (§1)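 Bacteria grown in 3% TSB at 37° C, diluted in 10 mM sodium phosphate/1% TSB to 1×10^5 CFU/ml in wells, exposed to peptides (0–300 μg/ml) for 1 h at 37° C. Mixtures plated on TS agar for 18 h at 37° C; MBC is the lowest concentration giving no colonies.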

[2] = tested on: Staphylococcus aureus (ATCC 29213); format: cell-based
In short: as §1

[3] = tested on: mouse red blood cells; format: cell-based
Protocol: Red blood cells were diluted with PBS, centrifuged 3 times at 900 g for 10 minutes, and washed. 100 μl of the diluted red blood cell solution (10% v/v PBS) was dispensed into each well of a 96-well microplate, and KU-5878, KU-5878-K4, KU-5878-K4-D, melittin, magainin 2 or daptomycin was added to each well which was then filled with PBS to 200 μl, followed by reaction by incubation at 37° C. for 1 hour. Then, the supernatant of the reaction solution was separated, and the absorbance at a wavelength of 550 nm was measured using a spectrophotometer. As control, PBS and 0.1% Triton X-100 (Triton X-100) solution were used.
Based on the results of measurement of the absorbance, the degree of red blood cell destruction was calculated according to Equation 1 below, and the results of the calculation are shown in FIG. 6. The % intact RBC=100(%)−[(absorbance of peptide-treated red blood cell solution−absorbance of PBS-treated red blood cell solution)/(absorbance of Triton X-100-treated red blood cell solution−absorbance of PBS-treated red blood cell solution)×100(%)] [Equation 1]

[4] = tested on: Pseudomonas aeruginosa and Staphylococcus aureus; assay: MBC assay, antibacterial activity of Romo1-derived peptides compared in words; format: cell-based; conditions: Table 1 peptides
Text: Romo1 protein comprises two α-helices. The present inventors synthesized the α-helix 2 region having both hydrophilicity and hydrophobicity, and evaluated the antibacterial activity thereof using minimum bactericidal concentration (MBC) assay. The α-helix 2 region was named KU-5279 (the 52-79 amino acid region of Romo1 protein). Then, in order to identify peptides that are beneficial for human application and have excellent antibacterial activity, the present inventors synthesized several peptides comprising a sequence of contiguous amino acids starting at any amino acid selected from the 52-79 amino acid region of Romo1 protein, and comparatively evaluated the antibacterial activities of the peptides by minimum bactericidal concentration assay (See Table 1 below for information on each peptide). Evaluation of the antibacterial activity of each peptide by minimum bactericidal concentration assay was specifically performed as follows. First, each of Pseudomonas aeruginosa (ATCC 27853) and Staphylococcus aureus (ATCC 29213) was cultured in 3% (w/v) TSB (Tryptic Soy Broth) liquid medium at 37° C. and 200 rpm for 4 hours, and then further cultured under the same conditions for 3 hours to a concentration of 5×10^6 CFU/ml. […]

[5] = tested on: methicillin-resistant Staphylococcus aureus (ATCC 33591); conditions: ATCC 33591, 4 h
[6] = tested on: multidrug-resistant Pseudomonas aeruginosa; conditions: 4 h
Protocol: First, each of Pseudomonas aeruginosa (ATCC 27853) and Staphylococcus aureus (ATCC 29213) was cultured in 3% (w/v) TSB (Tryptic Soy Broth) liquid medium at 37° C. and 200 rpm for 4 hours, and then further cultured under the same conditions for 3 hours to a concentration of 5×10^6 CFU/ml. Strain solutions were prepared by diluting each of the further cultured strains with SP (sodium phosphate; 10 mM sodium phosphate, 1% TSB) buffer to a final concentration of 2×10^5 CFU/ml.
(§2) Then, each peptide at varying concentrations (0 μg/ml to 300 μg/ml) was dispensed into each well of a 96-well microplate, and 100 μl (1×10^5 CFU/ml) of each of the prepared strain solutions was added thereto, mixed therewith, and allowed to react with the peptide in an incubator at 37° C. for 1 hour.
In addition, 30 g/L of TS (tryptic soy) and 15 g/L of agar were dissolved in distilled water and sterilized, and then 25 ml of the solution was poured onto a 100 mm round plate and solidified at room temperature for one day or more, thereby preparing a TS agar plate. 10 μl of each reaction solution of the peptide and the strain was plated on the TS agar plate at a constant size, and incubated in an incubator at 37° C. for 18 hours, and then colony formation on the plate was checked.
(§3) Specifically, each type of bacteria was cultured in 3% (w/v) TSB (Tryptic Soy Broth) liquid medium at 37° C. and 200 rpm for 4 hours, and then further cultured under the same conditions for 3 hours to a concentration of 5×10^6 CFU/ml. Strain solutions were prepared by diluting each of the […] of 2×10^5 CFU/ml.
as §2, with “Then, the KU-5878” for “Then, each”
(§4) In addition, 10 μl of each reaction solution of the peptide and the strain was plated on the TS agar plate at a constant size, and incubated in an incubator at 37° C. for 18 hours, and then colony formation on the plate was checked.
(§5) Meanwhile, the multidrug-resistant Pseudomonas aeruginosa, multidrug-resistant Acinetobacter and multidrug-resistant Klebsiella in Table 2 below were bacteria isolated from patients at Korea University Anam Hospital. […] Then, these bacteria were used in the experiment.

[7] = tested on: Streptococcus pneumoniae (NCCP 14585); format: cell-based; conditions: NCCP 14585, 4 h
Protocol: (§6) The minimum bactericidal concentration assay was the same as the method used in Example 1.
as §3
as §2, with “Then, the KU-5878” for “Then, each”
as §4, with “checked. The minimum bactericidal concentration was defined as the minimum concentration of the peptide at which no colony was formed, and the experimental results are shown in Table 2 below.” for “checked.”

[8] = tested on: Acinetobacter baumannii (ATCC 19606); assay: Minimum bactericidal concentration (MBC) assay; format: cell-based
Protocol: as §6, §3
as §2, with “Then, the KU-5878” for “Then, each”
as §4, with “checked. The minimum bactericidal concentration was defined as the minimum concentration of the peptide at which no colony was formed, and the experimental results are shown in Table 2 below.” for “checked.”

[9] = tested on: Bacillus subtilis (ATCC 6633); assay: Minimum bactericidal concentration (MBC) assay; format: cell-based
Protocol: as §6, §3
as §2, with “Then, the KU-5878” for “Then, each”
as §4, with “checked. The minimum bactericidal concentration was defined as the minimum concentration of the peptide at which no colony was formed, and the experimental results are shown in Table 2 below.” for “checked.”

[10] = tested on: Enterobacter aerogenes (ATCC 13048); assay: Minimum bactericidal concentration (MBC) assay; format: cell-based
Protocol: as §6, §3
as §2, with “Then, the KU-5878” for “Then, each”
as §4, with “checked. The minimum bactericidal concentration was defined as the minimum concentration of the peptide at which no colony was formed, and the experimental results are shown in Table 2 below.” for “checked.”

[11] = tested on: Enterococcus faecalis (ATCC 19433); assay: Minimum bactericidal concentration (MBC) assay; format: cell-based
Protocol: as §6, §3
as §2, with “Then, the KU-5878” for “Then, each”
as §4, with “checked. The minimum bactericidal concentration was defined as the minimum concentration of the peptide at which no colony was formed, and the experimental results are shown in Table 2 below.” for “checked.”

[12] = tested on: Enterococcus faecium (ATCC 19434); assay: Minimum bactericidal concentration (MBC) assay; format: cell-based
Protocol: as §6, §3
as §2, with “Then, the KU-5878” for “Then, each”
as §4, with “checked. The minimum bactericidal concentration was defined as the minimum concentration of the peptide at which no colony was formed, and the experimental results are shown in Table 2 below.” for “checked.”

[13] = tested on: Escherichia coli (ATCC 25922); assay: Minimum bactericidal concentration (MBC) assay; format: cell-based
Protocol: as §6, §3
as §2, with “Then, the KU-5878” for “Then, each”
as §4, with “checked. The minimum bactericidal concentration was defined as the minimum concentration of the peptide at which no colony was formed, and the experimental results are shown in Table 2 below.” for “checked.”

[14] = tested on: Klebsiella pneumoniae (ATCC 13883); assay: Minimum bactericidal concentration (MBC) assay; format: cell-based
Protocol: as §6, §3
as §2, with “Then, the KU-5878” for “Then, each”
as §4, with “checked. The minimum bactericidal concentration was defined as the minimum concentration of the peptide at which no colony was formed, and the experimental results are shown in Table 2 below.” for “checked.”

[15] = tested on: Streptomyces sindenensis (ATCC 12392); assay: Minimum bactericidal concentration (MBC) assay; format: cell-based
Protocol: as §6, §3
as §2, with “Then, the KU-5878” for “Then, each”
as §4, with “checked. The minimum bactericidal concentration was defined as the minimum concentration of the peptide at which no colony was formed, and the experimental results are shown in Table 2 below.” for “checked.”

[16] = tested on: Multidrug-resistant A. baumannii; conditions: multidrug-resistant, 4 h
Protocol: as §6, §3
as §2, with “Then, the KU-5878” for “Then, each”
as §4, §5

[17] = tested on: Multidrug-resistant K. pneumoniae; conditions: multidrug-resistant, 4 h
Protocol: as §6, §3
as §2, with “Then, the KU-5878” for “Then, each”
as §4, §5

[18] = tested on: Vancomycin-resistant E. faecium (NCCP 11522); format: cell-based, Enterococcus faecium; conditions: Vancomycin-resistant (NCCP 11522, 4 h)
Protocol: as §6, §3
as §2, with “Then, the KU-5878” for “Then, each”
as §4, with “checked. The minimum bactericidal concentration was defined as the minimum concentration of the peptide at which no colony was formed, and the experimental results are shown in Table 2 below.” for “checked.”

[19] = tested on: Vancomycin-resistant S. aureus (NCCP 15872); format: cell-based, Staphylococcus aureus; conditions: Vancomycin-resistant (NCCP 15872, 4 h)
Protocol: as §6, §3
as §2, with “Then, the KU-5878” for “Then, each”
as §4, with “checked. The minimum bactericidal concentration was defined as the minimum concentration of the peptide at which no colony was formed, and the experimental results are shown in Table 2 below.” for “checked.”

CC[C@H](C)[C@H](NC(=O)CNC(=O)[C@H](CCSC)NC(=O)CNC(=O)[C@@H](NC(=O)[C@H](C)NC(=O)[C@H](CCSC)NC(=O)[C@H](Cc1ccccc1)NC(=O)[C@@H](NC(=O)CNC(=O)[C@H](Cc1ccccc1)NC(=O)[C@@H](CCCCN)NC(=O)CNC(=O)CNC(=O)[C@@H](CCCCN)NC(=O)[C@@H](CCCCN)NC(=O)[C@H](CCSC)NC(=O)[C@H](CCSC)NC(=O)[C@@H](CCCCN)NC(=O)[C@@H](N)CCCCN)[C@@H](C)O)[C@@H](C)CC)C(=O)N[C@@H](CCCNC(=N)N)C(=O)O [KU-5878-K4-D] (H-K[dK]MM[dK][dK]GG[dK]FGTFMAIGMGIR-OH)
MBC (μg/ml) value against Pseudomonas aeruginosa ([1]; ATCC 27853, 1 h): 3 µg/mL (≈ 1.29 µM) | MBC (μg/ml) value against Staphylococcus aureus ([2]; ATCC 29213, 1 h): 3 µg/mL (≈ 1.29 µM) | hemolysis of red blood cells [3]: little hemolysis of red blood cells

CLRIGMRGRELM [pCM12, reference compound]
MBC value (μg/ml) against Pseudomonas aeruginosa ([1]; ATCC 27853, 1 h): >300 µg/mL | MBC value (μg/ml) against Staphylococcus aureus ([2]; ATCC 29213, 1 h): >300 µg/mL | antibacterial activity by MBC assay, in words [4]: low bactericidal activity

KKMMKKGGKFGTFMAIGMGIR [KU-5878-K4]
MBC (μg/ml) value against Pseudomonas aeruginosa ([1]; ATCC 27853): 4 µg/mL | MBC value (μg/ml) against Pseudomonas aeruginosa ([1]; ATCC 27853, 1 h): 4 µg/mL | MBC (μg/ml) value against Staphylococcus aureus ([2]; ATCC 29213): 3 µg/mL | MBC value (μg/ml) against Staphylococcus aureus ([2]; ATCC 29213, 1 h): 3 µg/mL | MBC value (μg/ml) against methicillin-resistant Staphylococcus aureus [5]: 5 µg/mL | MBC value (μg/ml) against multidrug-resistant Pseudomonas aeruginosa [6]: 5 µg/mL | MBC value (μg/ml), Streptococcus pneumoniae [7]: 4 µg/mL | MBC value (μg/ml), Acinetobacter baumannii [8]: 4 µg/mL | MBC value (μg/ml), Bacillus subtilis [9]: 5 µg/mL | MBC value (μg/ml), Enterobacter aerogenes [10]: 5 µg/mL | MBC value (μg/ml), Enterococcus faecalis [11]: 5 µg/mL | MBC value (μg/ml), Enterococcus faecium [12]: 5 µg/mL | MBC value (μg/ml), Escherichia coli [13]: 5 µg/mL | MBC value (μg/ml), Klebsiella pneumoniae [14]: 5 µg/mL | MBC value (μg/ml), Streptomyces sindenensis [15]: 5 µg/mL | MBC value (μg/ml), Multidrug-resistant A. baumannii [16]: 4 µg/mL | MBC value (μg/ml), Multidrug-resistant K. pneumoniae [17]: 5 µg/mL | MBC value (μg/ml), Vancomycin-resistant E. faecium [18]: 5 µg/mL | MBC value (μg/ml), Vancomycin-resistant S. aureus [19]: 6 µg/mL | hemolysis of red blood cells [3]: little hemolysis of red blood cells
